Consider five compounds from patent publication US12312328B2, “Pyrazoline dihydroquinolones, pharmaceutical compositions, and uses” (Emory University, priority 2013, dated 2025).

Bounds are passed on as bounds.

One series in a line: Plasma stability, rat. The format is in vitro ADME. The following applies: two-hour time-course. How it is done:
(§1) Three analogs, (58) 997-33, (26)997-23 and (64) 997-57 were evaluated for plasma stability as well as aqueous solubility. […] The aqueous solubility of compounds (26)997-23 and (58) 997-33 was evaluated in oocyte recording buffer using nephelometry. […] In order to assess the potential BBB penetration, compounds (26)997-23 and (64)997-57 were selected for evaluation in the MDR1-MDCK permeability assay (FIG. 19). […] The same compounds were also evaluated for metabolic stability using human liver microsomes.

Another series addresses GluN1/GluN2D (Rattus norvegicus, UniProt Q62645). The experiment in a line: Inhibition of GluN1/GluN2D responses: dependence on agonist concentration and on voltage. The format is cell-based. The following applies: 1 μM compound. An excerpt:
Although it is not intended that embodiments of this disclosure be limited by any mechanism, Acker et al. report a mechanism for noncompetitive inhibition by GluN2C/D N-methyl-d-aspartate receptor subunit-selective modulators. Molecular Pharmacology 2011, 80, 782-795.

For the next series, the target named is T1, mu-opioid (Homo sapiens, UniProt P35372).
T1 construct: NIMH PDSP (screening programme)
Put plainly: NIMH PDSP Ki determination, mu-opioid. The format is binding. Here is the method: (§2) The actions of these two compounds at 5 μM on were tested 42 different ion channels, G-protein coupled receptors, and transporters via the National Institutes of Mental Health (NIMH) psychoactive drug screening program (PDSP).

In series [1] the test system is 42 different ion channels, G-protein coupled receptors, and transporters. Put plainly: NIMH PDSP primary binding assay. The following applies: 5 μM compound. How it is done: as §2
A further series addresses GluN1/GluN2D receptors (Rattus norvegicus, UniProt P35439+Q62645). Put plainly: Whole-cell patch clamp recordings of GluN1/GluN2D receptors expressed in HEK293 cells. The format is cell-based.
Series [2] can be described thus: Aqueous solubility in oocyte recording buffer by nephelometry. The format is physicochemical. How it is done: as §1
The target in another series is T2, 5-HT6 (Homo sapiens, UniProt P50406).
T2 construct: NIMH PDSP (screening programme)
The experiment in a line: NIMH PDSP Ki determination, 5-HT6. The format is binding. How it is done:
as §2

A further series can be described thus: Plasma stability, mouse. The format is in vitro ADME. The following applies: two-hour time-course. How it is done: as §1
A short description of another series: Plasma stability, human. The format is in vitro ADME. The following applies: two-hour time-course. How it is done: as §1
The next series concerns the target T3, kappa-opioid (Homo sapiens, UniProt P41145).
T3 construct: NIMH PDSP (screening programme)
Put plainly: NIMH PDSP Ki determination, kappa-opioid. The format is binding. Here is the method: as §2

The target of another series is T4, 5-HT1E (Homo sapiens, UniProt P28566).
T4 construct: NIMH PDSP (screening programme)
The experiment in a line: NIMH PDSP Ki determination, 5-HT1E. The format is binding. How it is done:
as §2

The target of series [3] is T5, GluN2D-containing receptors (Rattus norvegicus, UniProt Q62645).
T5 construct: expressed in transfected cells; host or cells: Xenopus laevis oocytes
Put plainly: Two-electrode voltage-clamp inhibition of GluN2D-containing NMDA receptors in Xenopus laevis oocytes. The following applies: for IC50: GluN2D-containing receptors, read-out: inhibition IC50 for GluN2D. The format is cell-based. Here is the method: (§3) IC50 values were obtained by fitting the Hill equation to the average composite concentration-effect curves.
(§4) Xenopus laevis oocytes were isolated and maintained as described in Hansen & Traynelis, J Neurosci 2011, 31, 3650-3661. Oocytes were placed in a perfusion chamber with recording solution comprised of (in mM) 90 NaCl, 1 KCl, 0.5 BaCl2, 0.005 EDTA and 10 HEPES, pH adjusted to 7.4 with NaOH at 23° C. The glass electrodes used had tip resistance of 0.5-2.0 MΩ and were filled with 0.3-3.0 M KCl. Compounds were made as 20 mM stock solutions in DMSO and diluted to final concentrations in recording solution (final DMSO was 0.1-0.05% vol/vol). The current recordings were performed using a Warner OC-725B or C amplifier at a holding potential of −40 mV.
In general terms: In two-electrode clamp one electrode senses voltage and the other passes current.

Series [4] deals with T6, GluN2C-containing receptors (Rattus norvegicus, UniProt Q00961).
T6 construct: expressed in transfected cells; host or cells: Xenopus laevis oocytes
Put plainly: Two-electrode voltage-clamp inhibition of GluN2C-containing NMDA receptors in Xenopus laevis oocytes. The format is cell-based. How it is done:
as §3, §4

The target in a further series is T7, H2 (Homo sapiens, UniProt P25021).
T7 construct: NIMH PDSP (screening programme)
Put plainly: NIMH PDSP Ki determination, H2. The format is binding. How it is done: as §2

The test system of series [5] is MDR1-MDCK cell monolayers. Put plainly: MDR1-MDCK permeability assay. The format is in vitro ADME. The following applies: for Papp A-B: MDR1-MDCK, 5 μM, 120 minutes. How it is done: The Papp and efflux ratio were calculated as described in the Methods. […] See Wang et al., International Journal of Pharmaceutics, 2005, 288, 349-359.
Cell monolayers were grown to confluence on collagen-coated, microporous, polycarbonate membranes in 12-well Costar Transwell® plates. The permeability assay buffer was Hanks Balanced Salt Solution containing 10 mM HEPES and 15 mM glucose at pH 7.4. The buffer in the receiver chamber also contained 1% bovine serum albumin. The dosing solution concentration in the assay buffer was 5 μM for each compound tested. The cell monolayers were dosed on the apical side (A-to-B) or basolateral side (B-to-A) and incubated at 37° C. with 5% CO2 in a humidified incubator. Samples were taken from the donor and receiver chambers at 120 minutes. Each determination was performed in duplicate. The co-dosed lucifer yellow flux was also measured for each monolayer to ensure no damage was inflicted to the cell monolayers during the flux period. All samples were assayed by LC-MS/MS using electrospray ionization. The apparent permeability (Papp) and percent recovery were calculated as follows. […] Human Liver Microsomal Stability

For series [6], the system named is GluN2D receptor mutants Q801Y, L705F and A752V. Put plainly: Inhibition of mutant GluN2D receptors (Q801Y, L705F and A752V). The format is cell-based. The following applies: racemic mixture, A752V versus wild type. Here is the method: Mutations to the wild type GluN2D receptor (Q801Y, L705F and A752V) were described to decrease sensitivity of the GluN2D receptor to blockade by either DQP-1105 and/or QNZ-46 in the membrane proximal region of the bilobed ligand binding domain encoded by the S2 region of the polypeptide chain were evaluated. See Acker et al. and Hansen & Traynelis, J Neurosci, 2011, 31, 3650-3661.

Series [7] is described as follows: Human liver microsomal stability. The following applies: 60 minute assay. The format is in vitro ADME. Here is the method:
Human liver microsomes were obtained from XenoTech. The reaction mixture was prepared with 0.5 mg/mL human liver microsomes, 100 mM potassium phosphate (pH 7.4), 5 mM magnesium chloride, 1 μM test compound. The reaction mixture was incubated in a shaking water bath at 37° C. for 3 minutes prior to the addition of NADPH (1 mM). Testosterone was run simultaneously in a separate vessel as a control. 100 μl aliquots were taken at 0, 10, 20, 30 and 60 minutes for both test compound and testosterone. The aliquots were combined immediately with 400 μl of ice cold 50/50 ACN/dH2O containing 0.1% formic acid and internal standard to terminate the reaction. The samples were then mixed and centrifuged to precipitate microsomal proteins. All samples were assayed by LC-MS/MS using electrospray ionization and multiple reaction monitoring and the peak area responses to internal standard of the compounds at each time point was compared to the peak area response at time 0 to determine the percent compound remaining. The human liver microsomal stability assays were performed by Absorption Systems.
In general terms: Liver microsomes are vesicles of endoplasmic reticulum, rich in cytochrome P450 enzymes.

For series [8], the system named is GluN2C- and GluN2D-containing NMDA receptors. The experiment in a line: NMDA receptor inhibition and subunit selectivity, GluN2C/GluN2D not told apart. The format is cell-based. The following applies: activity at GluN2C- and GluN2D-containing receptors versus GluN2A. How it is done: as §3, §4

GluN1/GluN2D, sequence (Q62645 28-1323, other chains not shown): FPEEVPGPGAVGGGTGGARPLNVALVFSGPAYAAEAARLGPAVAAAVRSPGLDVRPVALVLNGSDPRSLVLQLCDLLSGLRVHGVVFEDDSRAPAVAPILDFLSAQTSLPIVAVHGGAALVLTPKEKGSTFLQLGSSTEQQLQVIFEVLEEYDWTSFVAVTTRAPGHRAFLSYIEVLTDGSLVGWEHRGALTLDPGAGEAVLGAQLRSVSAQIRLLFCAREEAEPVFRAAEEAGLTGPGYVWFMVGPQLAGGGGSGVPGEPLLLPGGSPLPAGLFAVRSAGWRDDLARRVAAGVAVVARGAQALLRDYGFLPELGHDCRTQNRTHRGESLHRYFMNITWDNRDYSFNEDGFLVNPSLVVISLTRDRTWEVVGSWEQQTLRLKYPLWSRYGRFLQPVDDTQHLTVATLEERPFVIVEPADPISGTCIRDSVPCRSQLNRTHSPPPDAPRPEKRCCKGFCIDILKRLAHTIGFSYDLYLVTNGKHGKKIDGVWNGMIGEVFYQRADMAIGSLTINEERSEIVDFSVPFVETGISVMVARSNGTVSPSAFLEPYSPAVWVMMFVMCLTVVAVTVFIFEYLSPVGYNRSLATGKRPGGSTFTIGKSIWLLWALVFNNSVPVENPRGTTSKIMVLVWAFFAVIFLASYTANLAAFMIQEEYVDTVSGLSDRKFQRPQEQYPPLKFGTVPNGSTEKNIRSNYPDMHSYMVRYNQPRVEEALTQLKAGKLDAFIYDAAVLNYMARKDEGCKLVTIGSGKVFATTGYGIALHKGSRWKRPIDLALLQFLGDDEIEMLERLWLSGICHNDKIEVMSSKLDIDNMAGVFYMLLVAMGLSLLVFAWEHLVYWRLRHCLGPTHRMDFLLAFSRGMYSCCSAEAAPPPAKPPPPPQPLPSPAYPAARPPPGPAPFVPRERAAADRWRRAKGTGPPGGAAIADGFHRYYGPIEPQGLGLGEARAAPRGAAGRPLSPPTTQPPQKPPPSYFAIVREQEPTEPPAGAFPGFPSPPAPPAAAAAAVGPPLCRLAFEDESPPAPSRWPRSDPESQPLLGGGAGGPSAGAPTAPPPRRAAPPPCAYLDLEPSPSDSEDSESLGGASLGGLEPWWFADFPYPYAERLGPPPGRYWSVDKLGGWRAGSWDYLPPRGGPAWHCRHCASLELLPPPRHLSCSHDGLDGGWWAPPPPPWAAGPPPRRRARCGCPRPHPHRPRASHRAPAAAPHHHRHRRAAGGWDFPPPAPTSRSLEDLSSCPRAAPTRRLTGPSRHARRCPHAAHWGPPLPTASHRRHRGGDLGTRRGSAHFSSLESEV
T5 sequence (Q62645 28-1323, other chains not shown): as above
T6 sequence (Q00961 20-1237, other chains not shown): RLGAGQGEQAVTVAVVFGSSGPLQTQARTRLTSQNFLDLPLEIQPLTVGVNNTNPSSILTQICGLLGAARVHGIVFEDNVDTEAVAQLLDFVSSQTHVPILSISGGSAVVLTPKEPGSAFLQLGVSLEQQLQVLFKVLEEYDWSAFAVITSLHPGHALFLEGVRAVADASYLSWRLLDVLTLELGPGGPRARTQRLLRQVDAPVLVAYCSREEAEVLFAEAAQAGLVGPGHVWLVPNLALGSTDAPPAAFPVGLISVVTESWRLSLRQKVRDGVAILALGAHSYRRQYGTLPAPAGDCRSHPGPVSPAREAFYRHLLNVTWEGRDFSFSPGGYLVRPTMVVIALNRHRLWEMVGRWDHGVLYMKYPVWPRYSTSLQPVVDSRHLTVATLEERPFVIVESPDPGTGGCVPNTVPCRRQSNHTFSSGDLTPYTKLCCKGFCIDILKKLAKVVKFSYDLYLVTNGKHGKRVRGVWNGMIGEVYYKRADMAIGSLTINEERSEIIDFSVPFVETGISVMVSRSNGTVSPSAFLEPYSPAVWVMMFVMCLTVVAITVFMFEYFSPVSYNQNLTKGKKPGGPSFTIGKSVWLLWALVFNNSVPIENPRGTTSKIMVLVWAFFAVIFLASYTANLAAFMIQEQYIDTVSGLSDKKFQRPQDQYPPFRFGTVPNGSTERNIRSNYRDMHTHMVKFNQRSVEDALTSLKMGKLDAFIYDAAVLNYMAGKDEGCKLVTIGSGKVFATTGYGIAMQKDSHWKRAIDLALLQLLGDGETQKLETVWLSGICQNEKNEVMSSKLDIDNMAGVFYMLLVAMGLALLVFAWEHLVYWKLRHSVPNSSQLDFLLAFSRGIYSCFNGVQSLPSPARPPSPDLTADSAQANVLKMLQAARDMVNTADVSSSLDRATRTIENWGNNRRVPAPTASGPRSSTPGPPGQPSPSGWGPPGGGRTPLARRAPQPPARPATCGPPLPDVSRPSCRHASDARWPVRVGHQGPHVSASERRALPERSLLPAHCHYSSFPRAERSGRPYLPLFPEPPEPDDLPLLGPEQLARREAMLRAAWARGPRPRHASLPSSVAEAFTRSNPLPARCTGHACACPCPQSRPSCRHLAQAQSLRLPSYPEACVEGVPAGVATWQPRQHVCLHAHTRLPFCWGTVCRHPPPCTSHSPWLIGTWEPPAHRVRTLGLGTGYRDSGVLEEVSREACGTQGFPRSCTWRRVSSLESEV
T2 sequence (P50406 whole entry, species assumed): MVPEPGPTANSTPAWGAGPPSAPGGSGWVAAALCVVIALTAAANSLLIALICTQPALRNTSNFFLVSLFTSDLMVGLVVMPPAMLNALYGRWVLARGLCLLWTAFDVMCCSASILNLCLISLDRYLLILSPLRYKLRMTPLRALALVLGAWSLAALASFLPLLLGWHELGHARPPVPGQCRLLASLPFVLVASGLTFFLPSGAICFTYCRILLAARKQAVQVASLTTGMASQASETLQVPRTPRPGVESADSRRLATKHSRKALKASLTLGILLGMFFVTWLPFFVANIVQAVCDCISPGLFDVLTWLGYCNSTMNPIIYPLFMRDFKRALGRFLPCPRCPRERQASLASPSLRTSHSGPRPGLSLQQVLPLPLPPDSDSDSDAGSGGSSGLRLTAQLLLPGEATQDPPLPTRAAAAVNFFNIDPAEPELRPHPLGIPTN
T3 sequence (P41145 whole entry): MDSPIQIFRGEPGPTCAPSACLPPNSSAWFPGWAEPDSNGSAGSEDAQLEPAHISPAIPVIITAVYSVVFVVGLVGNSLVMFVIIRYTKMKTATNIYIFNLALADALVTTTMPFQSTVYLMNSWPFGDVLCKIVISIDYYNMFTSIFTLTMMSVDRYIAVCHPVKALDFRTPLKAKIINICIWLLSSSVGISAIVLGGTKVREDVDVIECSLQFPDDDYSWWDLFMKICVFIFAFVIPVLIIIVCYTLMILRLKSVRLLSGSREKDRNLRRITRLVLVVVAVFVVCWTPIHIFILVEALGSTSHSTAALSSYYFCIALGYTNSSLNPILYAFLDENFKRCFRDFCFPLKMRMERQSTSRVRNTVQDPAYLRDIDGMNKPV
GluN1/GluN2D receptors, sequence (Q62645 28-1323, other chains not shown): as the sequence (Q62645 28-1323, other chains not shown) above
T1 sequence (P35372 whole entry): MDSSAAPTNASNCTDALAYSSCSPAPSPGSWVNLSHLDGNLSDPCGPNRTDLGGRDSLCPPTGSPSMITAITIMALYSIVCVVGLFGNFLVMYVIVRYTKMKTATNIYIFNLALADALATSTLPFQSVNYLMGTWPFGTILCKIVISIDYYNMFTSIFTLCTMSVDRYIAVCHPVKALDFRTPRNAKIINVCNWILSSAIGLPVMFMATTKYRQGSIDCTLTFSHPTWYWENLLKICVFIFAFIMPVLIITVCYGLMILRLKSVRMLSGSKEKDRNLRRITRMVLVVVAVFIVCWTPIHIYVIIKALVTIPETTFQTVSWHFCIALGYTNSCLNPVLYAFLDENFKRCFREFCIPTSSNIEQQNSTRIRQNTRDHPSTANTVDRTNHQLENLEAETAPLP
T4 sequence (P28566 whole entry, species assumed): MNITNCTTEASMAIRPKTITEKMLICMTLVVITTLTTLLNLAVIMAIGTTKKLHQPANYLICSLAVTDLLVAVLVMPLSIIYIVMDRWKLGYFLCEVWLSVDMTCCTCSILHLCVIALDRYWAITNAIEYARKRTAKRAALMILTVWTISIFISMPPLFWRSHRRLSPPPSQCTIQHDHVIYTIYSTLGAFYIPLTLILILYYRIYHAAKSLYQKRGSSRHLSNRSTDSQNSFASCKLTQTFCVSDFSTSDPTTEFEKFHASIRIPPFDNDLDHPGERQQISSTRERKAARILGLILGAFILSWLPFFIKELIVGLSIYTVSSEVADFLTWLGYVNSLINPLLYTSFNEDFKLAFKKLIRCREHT
T7 sequence (P25021 whole entry): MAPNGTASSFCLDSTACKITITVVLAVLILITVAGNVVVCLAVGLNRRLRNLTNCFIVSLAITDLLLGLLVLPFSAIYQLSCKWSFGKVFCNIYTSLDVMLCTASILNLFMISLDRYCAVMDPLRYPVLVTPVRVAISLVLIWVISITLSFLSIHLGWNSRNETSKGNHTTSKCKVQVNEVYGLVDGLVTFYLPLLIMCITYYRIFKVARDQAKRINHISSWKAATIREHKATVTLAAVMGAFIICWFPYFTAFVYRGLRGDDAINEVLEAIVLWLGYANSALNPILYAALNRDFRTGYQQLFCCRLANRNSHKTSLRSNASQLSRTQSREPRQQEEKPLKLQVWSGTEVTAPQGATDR
Procedure for GluN1/GluN2D receptors: The time course of recovery from inhibition could also be well described by a single exponential function, and the kOFF was determined by the y-intercept in the linear regression relationship between the reciprocal of the tau describing the onset of inhibition and the drug concentration.

With `O=C(O)/C=C/C(=O)N1N=C(c2c(-c3ccc(Br)cc3)c3ccccc3[nH]c2=O)CC1c1ccc(Cl)cc1` (racemic) [Compound 997-33, (E)-4-(3-(4-(4-Bromophenyl)-2-oxo-1,2-dihydroquinolin-3-yl)-5-(4-chlorophenyl)-4,5-dihydro-1H-pyrazol-1-yl)-4-oxobut-2-enoic acid], the plasma stability result in the series “Plasma stability, rat” was “minimal degradation”; in “Plasma stability, mouse”, “minimal degradation”; in the series “Plasma stability, human”, “minimal degradation”. Further, the GluN1/GluN2D response remaining at GluN1/GluN2D (30 μM glutamate and glycine, n=6) is on record as 4.1 ± 0.58 % of control; at GluN1/GluN2D (3 mM glutamate and glycine, n=6) it was 3.1 ± 0.50 % of control; on GluN1/GluN2D (+30 mV, n=8), 4.8+1.2 % of control; at GluN1/GluN2D (−40 mV, n=8), 4.9 ± 1.3 % of control. Besides, the Ki on mu-opioid, at 5-HT6, at kappa-opioid and at 5-HT1E was more than 10000 nM throughout. Besides, in [1], the “effect on receptors and transporters in primary binding assay” value is listed as “minimal effect”. For the same compound, at GluN1/GluN2D receptors (HEK293 cells, n=4, read-out: IC50 for inhibition of the response under whole-cell voltage clamp), the half-maximal inhibitory concentration (IC50) amounted to 990 nM. Further, at GluN1/GluN2D receptors (calculated from kOFF and kON, read-out: dissociation constant KD), the Kd is 990 nM. The solubility in [2] was more than 80 µM.

Take `O=C(O)CCC(=O)N1N=C(c2c(-c3ccc(Br)cc3)c3ccccc3[nH]c2=O)CC1c1ccc(Br)cc1` (centres unmarked) [Compound 997-7, 4-(5-(4-Bromophenyl)-3-(4-(4-bromophenyl)-2-oxo-1,2-dihydroquinolin-3-yl)-4,5-dihydro-1H-pyrazol-1-yl)-4-oxobutanoic acid]: in series [3], the “selectivity for GluN2D-containing over GluN2A-containing receptors” value stood at 33 fold, the “selectivity for GluN2D-containing over GluN2B-containing receptors” value was 67 fold and the IC50 was 390 nM. Half-maximal inhibition in series [4] (IC50) was put at 710 nM.

Turning to `O=C(O)CCCN1N=C(c2c(-c3ccc(Cl)cc3)c3ccccc3[nH]c2=O)CC1c1ccc(Cl)cc1` (centres unmarked) [Compound 997-63, 4-(5-(4-Chlorophenyl)-3-(4-(4-chlorophenyl)-2-oxo-1,2-dihydroquinolin-3-yl)-4,5-dihydro-1H-pyrazol-1-yl)butanoic acid], the IC50 came to 1700 nM in series [3] and 3000 nM in series [4].

In the case of `O=C(O)CCC(=O)N1N=C(c2c(-c3ccc(Cl)cc3)c3ccccc3[nH]c2=O)CC1c1ccc(Cl)cc1` (racemic) [Compound 997-23, 4-(5-(4-Chlorophenyl)-3-(4-(4-chlorophenyl)-2-oxo-1,2-dihydroquinolin-3-yl)-4,5-dihydro-1H-pyrazol-1-yl)-4-oxobutanoic acid], the Ki on H2, on 5-HT6 and on kappa-opioid was more than 10000 nM each time. The plasma stability result in the series “Plasma stability, rat” was “minimal degradation”; in the series “Plasma stability, mouse”, “minimal degradation”; in the series “Plasma stability, human”, “minimal degradation”. In addition, the “Papp A-B” value in series [5] came to 0.47 ×10⁻⁶ cm/s. Also, the “effect of GluN2D mutations on degree of inhibition” value in series [6] was “significantly reduced the degree of inhibition”. Moreover, in series [1], the “effect on receptors and transporters in primary binding assay” value is on record as “minimal effect”. Moreover, the “degradation in human liver microsomes, in words” value in series [7] is “minimal degradation”. For the same compound, the solubility in series [2] is more than 80 µM.

As to `O=C(CCCO)N1N=C(c2c(-c3ccc(Cl)cc3)c3ccccc3[nH]c2=O)CC1c1ccc(Cl)cc1` (centres unmarked) [Compound 997-57, 4-(4-Chlorophenyl)-3-(5-(4-chlorophenyl)-1-(4-hydroxybutanoyl)-4,5-dihydro-1H-pyrazol-3-yl)quinolin-2(1H)-one], the plasma stability entry in “Plasma stability, rat” was “minimal degradation”; in “Plasma stability, mouse” it was “minimal degradation”; in “Plasma stability, human”, “minimal degradation”. Moreover, the “Papp A-B” value in [5] came to 2.46 ×10⁻⁶ cm/s. Besides, the BBB penetration classification entry in series [5] (from Papp and efflux ratio in MDR1-MDCK) is “low BBB potential”. Moreover, the “selectivity over GluN2A-containing receptors” value in series [8] came out at 90 fold.

What is called Ki is the equilibrium dissociation constant of an inhibitor or competing ligand from its target. The term IC50 denotes the concentration that inhibits the measured activity by half. As a reminder, the Kd is a measure of binding affinity in units of concentration. In general, solubility refers to the concentration that dissolves in the medium under given conditions. Read a low solubility as a poorly soluble substance.
